Each structure is given as a SMILES string. Where two headings read alike, the source gives them in different places. Some results are limits rather than exact numbers.

A short description of data set [1]: Plasma stability assay (LC-MS/MS). In kind it is in vitro ADME. As to conditions: human plasma, 37° C., 3 μM. The protocol: Procaine and procainamide were purchased from Sigma Aldrich. HPLC-grade acetonitrile, water, methanol, and formic acid were purchased from Fisher Scientific. Human plasma (Cat. No. […]2N) was obtained from BIOIVT, and PBS (1×Dulbecco's, pH 7.4) from Thermo Fisher Scientific.
Test compounds were dissolved in DMSO to make a stock solution of 10 mM and then diluted to 500 μM in buffer or 70% methanol. Human plasma was thawed at ambient temperature and aliquoted (994.0 μL) to a 1.5 mL Eppendorf tube in duplicates (vials A and B) for each compound. The plasma was incubated at 37° C. for 10 min in an incubator shaker at 150 RPM; the reaction was initiated by addition of the test compound (6.0 μL), followed by vortex mixing. The total reaction volume was 1000 μL, the final organic solvent concentrations were […] (when 70% methanol was used for dilution) and 0.03% DMSO, and the final concentration of the test compound was 3 μM. The spiked plasma samples were incubated at 37° C. for 4 h. The reactions were terminated at time point 0, 15, 30, 60, 120, 180, and 240 min by taking a 100 μL aliquot from the test incubation mixture and immediately quenching it by adding it into ice-cold acetonitrile or methanol (150 μL) containing 2 μM internal standard (ISTD), followed by vortex mixing. The ISTD was d5-7-ethoxy coumarin. The samples were then centrifuged at 15000 RPM for 25 min at 4° C., and the supernatant was transferred to an LC-MS vial for analysis by LC-MS/MS. Each time point was tested in duplicates followed by in-between blank washes to avoid carryover and to equilibrate the column.
Procaine (poor plasma stability) and procainamide (good plasma stability) were used as controls at the same concentration as that of the test compound. These controls were run in parallel to test the assay's competency. Matrix blank was prepared by adding acetonitrile or methanol containing ISTD to plasma samples without any of the test or control compounds. Also, an additional control sample was made to simply monitor compound degradation in PBS buffer.
Below is a summary of samples prepared for a given test compound in a typical plasma stability assay: • Test compound (TC): 994 μL human plasma+6.0 μL TC (Vial A) 994 μL human plasma+6.0 μL TC (Vial B) • Control: 596 μL human plasma+3.6 μL (procaine+procainamide) • Blank matrix: 500 μL PBS buffer+100 μL human plasma • Additional control: 142 μL PBS buffer+0.9 μL TC • Quenching mixture: 150 μL acetonitrile or methanol with ISTD (2 μM) • Final volume: 250 μL (100 μL from the incubation mixture+150 μL quenching mixture; final ISTD conc.: 1.2 μM)
LC-MS/MS analysis was performed using Agilent 1260 Infinity II HPLC, coupled with an Agilent G6460 triple quadrupole mass spectrometer (Agilent Technologies, USA). The data were acquired and processed using the Agilent 6460 Quantitative Analysis data processing software.
Reverse-phase HPLC separation for each compound was achieved on an Agilent InfinityLab Poroshell 120 C18 column (2.1×50 mm, 2.7 μm) with a mobile phase composed of methanol/water with 0.1% formic acid or acetonitrile/water with 0.1% formic acid at a flow rate of 0.5 mL/min. Each method was developed in the presence of the ISTD. The column temperature was maintained at 40° C. The detection was operated using the Agilent Jet-Stream electrospray positive ionization under the multiple reaction monitoring mode. The mass spec conditions were as follows: dwell time 100 ms; gas flow 10 L/min; nebulizer pressure 45 psi; delta EMV 200 V.
Plots of time (x-axis) vs. the natural logarithm of percent parent remaining (y-axis) were subsequently constructed to determine the slope. Finally, the plasma stability was evaluated using the following equation: […]

The nature of data set [2]: Aqueous stability assay (HPLC, pseudo first-order half-life). Format: physicochemical. Conditions: buffer, DPBS pH 7.0-7.3, 1 mg/mL, room temperature, read-out: PBS t1/2 (converted). How it is done:
Aqueous stability experiments were performed on an Agilent 1100 HPLC equipped with an Agilent 1200 autosampler. HPLC grade solvents were exclusively used during analysis, with acetonitrile being purchased from Sigma Aldrich, and water and formic acid provided by Fisher Scientific. […]
[…] All mixtures were then sonicated for 5 min or stirred until complete dissolution was achieved. Any precipitate observed in sample solutions was filtered with a PTFE syringe filter prior to analysis. Immediately after sample preparation, injection by the HPLC autosampler was performed, which was recorded as the initial time point (t=0 min). Samples were then kept in the autosampler at room temperature and injected at designated intervals without additional filtration or sample modification. Next, the area of the parent peak in each chromatogram was determined by automated integration in the Agilent ChemStation software. Pseudo first-order half-lives were then ascertained by calculating the percent of the parent compound remaining after each time point. Plots of time (x-axis) vs. the natural logarithm of percent parent remaining (y-axis) were subsequently constructed to determine the slope. Finally, the aqueous stability was evaluated using the following equation:
The HPLC conditions were as follows: injection volume, 1 μL; column temperature: 40° C.; detector: 254 nm; stationary phase: Zorbax Eclipse XDB-C18 (4.6×150 mm, 5 μm); flow rate: 1 mL/min; mobile phase: 80-95% acetonitrile in H2O (0.1% formic acid).

[3] abbreviates: read-out: Plasma t1/2 (converted).

Regarding `C/C(=N\OC(=O)N1CCC[C@H]1CN)[C@H]1CCC2[C@@H]3CCC4=CC(=O)CC[C@]4(C)[C@H]3CC[C@@]21C` (stereo partly drawn) [32h, ((2S)-1-(((((E)-1-((8S,9S,10R,13S,17S)-10,13-dimethyl-3-oxo-2,3,6,7,8,9,10,11,12,13,14,15,16,17-tetradecahydro-1H-cyclopenta[a]phenanthren-17-yl)ethylidene)amino)oxy)carbonyl)pyrrolidin-2-yl) methanaminium chloride], the half-life at 3 µM in data set [1] (setting [3]) is more than 4 h. Further, the half-life at 1 mg/mL in data set [2] (d (days)) was more than 720 h. As to `C/C(=N\OC(=O)N(CCNC(C)(C)C)C(C)(C)C)[C@H]1CC[C@H]2[C@@H]3CCC4=CC(=O)CC[C@]4(C)[C@H]3CC[C@]12C.Cl` [54c, (E)-6-(tert-butyl)-2-((8S,9S,10R,13S,14S,17S)-10,13-dimethyl-3-oxo-2,3,6,7,8,9,10,11,12,13,14,15,16,17-tetradecahydro-1H-cyclopenta[a]phenanthren-17-yl)-10,10-dimethyl-4-oxa-3,6,9-triazaundec-2-en-5-one hydrochloride], the “Plasma % rmn at 2 h” value in data set [1] (2 h) is on record as 93%. In addition, the half-life in data set [2] was more than 24 h.

For `CNCCCN(C)C(=O)O/N=C(\C)[C@H]1CC[C@H]2[C@@H]3CCC4=CC(=O)CC[C@]4(C)[C@H]3CC[C@]12C.Cl` [compound 39, (E)-10-((8S,9S,10R,13S,14S,17S)-10,13-dimethyl-3-oxo-2,3,6,7,8,9,10,11,12,13,14,15,16,17-tetradecahydro-1H-cyclopenta[a]phenanthren-17-yl)-6-methyl-8-oxa-2,6,9-triazaundec-9-en-7-one hydrochloride], the “Plasma t1/2” value in data set [1] was more than 4 h. In addition, the half-life in data set [2] (d (days)) is more than 720 h. Turning to `C/C(=N\OC(=O)N(C)CCNCCF)[C@H]1CC[C@H]2[C@@H]3CCC4=CC(=O)CC[C@]4(C)[C@H]3CC[C@]12C.O=C(O)C(F)(F)F` [32o, (E)-2-((8S,9S,10R,13S,14S,17S)-10,13-dimethyl-3-oxo-2,3,6,7,8,9,10,11,12,13,14,15,16,17-tetradecahydro-1H-cyclopenta[a]phenanthren-17-yl)-11-fluoro-6-methyl-4-oxa-3,6,9-triazaundec-2-en-5-one 2,2,2-trifluoroacetate], the “Plasma t1/2” value in data set [1] is reported as 2.2 h. Besides, in data set [2], the half-life at 1 mg/mL was 36.1 ± 2.4 h. For `C/C(=N\OC(=O)N(C)C[C@@H]1CCCCN1)[C@H]1CCC2[C@@H]3CCC4=CC(=O)CC[C@]4(C)[C@H]3CC[C@@]21C.Cl` (stereo partly drawn) [32l, (8S,9S,10R,13S,17S)-10,13-dimethyl-17-((E)-1-(((methyl(((S)-piperidin-2-yl)methyl)carbamoyl)oxy)imino)ethyl)-1,2,6,7,8,9,10,11,12,13,14,15,16,17-tetradecahydro-3H-cyclopenta[a]phenanthren-3-one hydrochloride], the half-life in data set [1] (setting [3]) was 6.8 h; in data set [2] (d (days)), 475 h. In the case of `C/C(=N\OC(=O)N(C)CCNCCOC(F)(F)F)[C@H]1CC[C@H]2[C@@H]3CCC4=CC(=O)CC[C@]4(C)[C@H]3CC[C@]12C.Cl` [compound 41, (E)-12-((8S,9S,10R,13S,14S,17S)-10,13-dimethyl-3-oxo-2,3,6,7,8,9,10,11,12,13,14,15,16,17-tetradecahydro-1H-cyclopenta[a]phenanthren-17-yl)-1,1,1-trifluoro-8-methyl-2,10-dioxa-5,8,11-triazatridec-11-en-9-one hydrochloride], the half-life was 1.1 h in data set [1] (setting [3]) and 28.5 ± 1.8 h in data set [2].

In the case of `C/C(=N\OC(=O)N(C)Cc1ccccn1)[C@H]1CC[C@H]2[C@@H]3CCC4=CC(=O)CC[C@]4(C)[C@H]3CC[C@]12C` [compound 36, (8S,9S,10R,13S,14S,17S)-10,13-dimethyl-17-((E)-1-(((methyl(pyridin-2-ylmethyl)carbamoyl)oxy)imino)ethyl)-1,2,6,7,8,9,10,11,12,13,14,15,16,17-tetradecahydro-3H-cyclopenta[a]phenanthren-3-one], the half-life in data set [1] (setting [3]) is 222 h.

The values are drawn from patent US20250034200A1, “Prodrugs of Neurosteroid Analogs and Uses Thereof” (priority 2021, published 2025).
